The values below come from article PMC8550792, “Evolution of kinase polypharmacology across HSP90 drug discovery” (Cell Chemical Biology, 2021).

Experiment [1] addresses T1, 382 unique human kinases (Homo sapiens, UniProt Q9Y243, E17K).
T1 construct: purchased Reaction Biology (HotSpot contract assay)
The experiment is described as follows: biochemical. It is filed as biochemical. As to conditions: AKT3 (E17K), 10 uM; for remaining activity at 10 µM: read-out: % Enzyme Activity (relative to DMSO controls).

Experiment [2] addresses T2, 382 unique human kinases (Homo sapiens, UniProt P08581, Y1230D).
T2 construct: purchased Reaction Biology (HotSpot contract assay)
The experiment is described as follows: biochemical. It is filed as biochemical. As to conditions: c-MET (Y1230D), compound at 10 uM, duplicate values; for remaining activity at 10 µM: read-out: % Enzyme Activity (relative to DMSO controls).

Experiment [3] concerns the target T3, 382 unique human kinases (Homo sapiens, UniProt Q15139).
T3 construct: purchased Reaction Biology (HotSpot contract assay)
T3 sequence (Q15139 1-912): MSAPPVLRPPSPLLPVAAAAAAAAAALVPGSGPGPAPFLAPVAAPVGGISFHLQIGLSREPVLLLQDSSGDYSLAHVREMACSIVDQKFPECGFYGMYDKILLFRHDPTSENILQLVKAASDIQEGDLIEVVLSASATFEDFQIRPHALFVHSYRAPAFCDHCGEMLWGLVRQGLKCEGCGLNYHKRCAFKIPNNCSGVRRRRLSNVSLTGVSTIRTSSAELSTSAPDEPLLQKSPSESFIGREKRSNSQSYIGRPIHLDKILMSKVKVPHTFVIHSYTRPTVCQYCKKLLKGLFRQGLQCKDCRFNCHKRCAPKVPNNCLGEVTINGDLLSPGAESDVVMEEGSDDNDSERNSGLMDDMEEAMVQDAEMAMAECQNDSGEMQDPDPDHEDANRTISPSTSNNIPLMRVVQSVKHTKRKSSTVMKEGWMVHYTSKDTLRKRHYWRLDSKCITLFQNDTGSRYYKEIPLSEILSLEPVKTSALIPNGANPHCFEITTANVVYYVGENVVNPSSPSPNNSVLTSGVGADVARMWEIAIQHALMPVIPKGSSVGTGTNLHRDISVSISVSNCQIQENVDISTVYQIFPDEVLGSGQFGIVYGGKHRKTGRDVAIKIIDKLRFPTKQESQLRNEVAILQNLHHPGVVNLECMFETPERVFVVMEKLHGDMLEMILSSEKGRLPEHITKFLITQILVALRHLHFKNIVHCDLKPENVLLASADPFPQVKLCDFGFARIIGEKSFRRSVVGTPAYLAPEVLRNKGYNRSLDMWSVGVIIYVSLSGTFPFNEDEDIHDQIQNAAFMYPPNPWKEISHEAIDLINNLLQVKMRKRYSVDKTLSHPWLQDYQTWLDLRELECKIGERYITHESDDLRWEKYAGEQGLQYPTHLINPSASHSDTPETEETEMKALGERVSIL
The experiment can be described thus: biochemical. Format: biochemical. Particulars: PKCmu/PRKD1, 10 uM; for remaining activity at 10 µM: read-out: % Enzyme Activity (relative to DMSO controls).

For experiment [4], the target named is T4, 382 unique human kinases (Homo sapiens, UniProt Q7KZI7).
T4 construct: purchased Reaction Biology (HotSpot contract assay)
The experiment is described as follows: biochemical. Particulars: MARK2/PAR-1Ba, 10 uM; for remaining activity at 10 µM: read-out: % Enzyme Activity (relative to DMSO controls). Format: biochemical.

Experiment [5] deals with T5, 382 unique human kinases (Homo sapiens, UniProt Q8N4C8).
T5 construct: purchased Reaction Biology (HotSpot contract assay)
T5 sequence (Q8N4C8 whole entry): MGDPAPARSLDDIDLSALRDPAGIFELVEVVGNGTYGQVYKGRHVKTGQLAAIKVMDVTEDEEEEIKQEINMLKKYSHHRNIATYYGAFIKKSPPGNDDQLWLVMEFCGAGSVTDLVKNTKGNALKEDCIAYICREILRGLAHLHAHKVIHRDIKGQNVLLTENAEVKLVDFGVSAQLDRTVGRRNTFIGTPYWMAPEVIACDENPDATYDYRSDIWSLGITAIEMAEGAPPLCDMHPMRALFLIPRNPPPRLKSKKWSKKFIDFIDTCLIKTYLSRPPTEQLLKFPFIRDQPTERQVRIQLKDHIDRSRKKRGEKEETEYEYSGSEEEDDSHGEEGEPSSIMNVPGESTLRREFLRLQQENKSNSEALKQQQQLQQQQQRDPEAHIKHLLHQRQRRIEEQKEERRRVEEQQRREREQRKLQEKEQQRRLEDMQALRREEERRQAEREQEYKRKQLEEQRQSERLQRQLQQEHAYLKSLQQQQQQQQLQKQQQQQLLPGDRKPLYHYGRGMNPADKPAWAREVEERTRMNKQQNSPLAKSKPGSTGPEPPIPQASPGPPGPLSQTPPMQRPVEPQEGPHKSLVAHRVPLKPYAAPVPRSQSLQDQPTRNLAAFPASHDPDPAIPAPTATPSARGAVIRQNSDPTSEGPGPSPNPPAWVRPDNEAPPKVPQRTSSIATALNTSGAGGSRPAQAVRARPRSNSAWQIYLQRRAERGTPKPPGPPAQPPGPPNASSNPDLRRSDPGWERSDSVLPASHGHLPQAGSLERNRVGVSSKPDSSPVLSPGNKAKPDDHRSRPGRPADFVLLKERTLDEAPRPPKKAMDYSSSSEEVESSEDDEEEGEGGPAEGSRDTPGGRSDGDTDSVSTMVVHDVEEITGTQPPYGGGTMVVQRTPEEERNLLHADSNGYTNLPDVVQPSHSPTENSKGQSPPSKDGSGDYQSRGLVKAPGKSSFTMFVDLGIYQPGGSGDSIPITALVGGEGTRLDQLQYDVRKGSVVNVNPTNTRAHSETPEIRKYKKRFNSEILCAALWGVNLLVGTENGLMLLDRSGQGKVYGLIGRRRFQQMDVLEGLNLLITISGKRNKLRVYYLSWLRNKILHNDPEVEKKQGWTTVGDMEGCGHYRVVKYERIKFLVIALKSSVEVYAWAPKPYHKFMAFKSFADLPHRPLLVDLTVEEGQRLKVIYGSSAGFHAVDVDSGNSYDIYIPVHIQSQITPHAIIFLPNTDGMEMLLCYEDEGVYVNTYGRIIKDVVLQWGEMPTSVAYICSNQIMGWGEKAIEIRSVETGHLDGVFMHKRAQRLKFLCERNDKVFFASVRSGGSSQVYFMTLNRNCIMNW
The experiment can be described thus: biochemical. It is filed as biochemical. As to conditions: MINK/MINK1, 10 uM; for remaining activity at 10 µM: read-out: % Enzyme Activity (relative to DMSO controls).

Experiment [6] concerns the target T6, 382 unique human kinases (Homo sapiens, UniProt P25098).
T6 construct: purchased Reaction Biology (HotSpot contract assay)
T6 sequence (P25098 1-689): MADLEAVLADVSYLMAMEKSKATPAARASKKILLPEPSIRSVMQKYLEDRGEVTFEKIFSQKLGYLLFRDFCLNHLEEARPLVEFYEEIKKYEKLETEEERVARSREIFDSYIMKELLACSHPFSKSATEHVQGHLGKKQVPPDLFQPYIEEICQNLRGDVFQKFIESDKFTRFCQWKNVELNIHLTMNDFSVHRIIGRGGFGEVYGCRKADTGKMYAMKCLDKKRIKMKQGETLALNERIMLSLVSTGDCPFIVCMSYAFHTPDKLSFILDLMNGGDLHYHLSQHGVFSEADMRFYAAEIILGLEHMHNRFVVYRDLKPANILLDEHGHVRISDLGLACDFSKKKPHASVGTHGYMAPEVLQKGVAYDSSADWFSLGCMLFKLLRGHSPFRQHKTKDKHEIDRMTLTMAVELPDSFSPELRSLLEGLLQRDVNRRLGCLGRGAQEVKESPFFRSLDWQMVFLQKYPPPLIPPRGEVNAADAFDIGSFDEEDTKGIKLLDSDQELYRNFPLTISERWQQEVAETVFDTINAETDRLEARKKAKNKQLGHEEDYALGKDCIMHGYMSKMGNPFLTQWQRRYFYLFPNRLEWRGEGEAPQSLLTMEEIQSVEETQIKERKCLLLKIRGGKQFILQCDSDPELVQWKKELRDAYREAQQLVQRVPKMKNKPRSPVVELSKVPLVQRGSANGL
The experiment is described as follows: biochemical. Format: biochemical. As to conditions: GRK2, compound at 10 uM, duplicate values; for remaining activity at 10 µM: read-out: % Enzyme Activity (relative to DMSO controls).

In experiment [7] the target is T7, 382 unique human kinases (Homo sapiens, UniProt P53779).
T7 construct: purchased Reaction Biology (HotSpot contract assay)
The experiment can be described thus: biochemical. Format: biochemical. As to conditions: JNK3, compound at 10 uM, duplicate values; for remaining activity at 10 µM: read-out: % Enzyme Activity (relative to DMSO controls).

The next experiment relates to TRAP1. Details: method as in ChEMBL23 (accessed: 23/08/2018). Particulars: average of reported values; ref ChEMBL23 (accessed: 23/08/2018); cited from earlier work.
The target of experiment [8] is T8, 382 unique human kinases (Homo sapiens, UniProt Q16584).
T8 construct: purchased Reaction Biology (HotSpot contract assay)
T8 sequence (Q16584 whole entry): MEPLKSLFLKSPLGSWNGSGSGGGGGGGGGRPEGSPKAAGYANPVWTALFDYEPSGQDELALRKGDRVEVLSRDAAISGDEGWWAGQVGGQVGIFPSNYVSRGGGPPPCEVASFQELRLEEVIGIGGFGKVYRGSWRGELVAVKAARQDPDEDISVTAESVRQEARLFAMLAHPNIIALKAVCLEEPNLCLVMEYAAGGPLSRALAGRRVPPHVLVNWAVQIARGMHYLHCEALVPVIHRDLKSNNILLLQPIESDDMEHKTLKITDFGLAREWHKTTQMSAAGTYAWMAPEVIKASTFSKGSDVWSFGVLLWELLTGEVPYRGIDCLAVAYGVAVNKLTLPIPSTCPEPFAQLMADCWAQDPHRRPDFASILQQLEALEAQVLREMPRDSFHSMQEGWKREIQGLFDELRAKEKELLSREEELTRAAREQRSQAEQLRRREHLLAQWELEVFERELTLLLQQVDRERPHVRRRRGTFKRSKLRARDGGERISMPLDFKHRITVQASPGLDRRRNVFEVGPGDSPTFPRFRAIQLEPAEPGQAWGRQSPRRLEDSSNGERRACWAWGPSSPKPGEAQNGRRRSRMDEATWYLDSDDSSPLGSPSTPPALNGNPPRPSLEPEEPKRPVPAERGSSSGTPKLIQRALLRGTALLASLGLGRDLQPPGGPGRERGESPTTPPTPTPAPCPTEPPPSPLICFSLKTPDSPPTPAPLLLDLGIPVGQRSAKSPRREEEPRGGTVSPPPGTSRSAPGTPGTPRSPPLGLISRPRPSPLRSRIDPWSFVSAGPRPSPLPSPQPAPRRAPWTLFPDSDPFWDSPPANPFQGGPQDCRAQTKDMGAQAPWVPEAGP
The experiment is described as follows: biochemical. Format: biochemical. As to conditions: MLK3/MAP3K11, 10 uM; for remaining activity at 10 µM: read-out: % Enzyme Activity (relative to DMSO controls).

The target of experiment [9] is T9, 382 unique human kinases (Homo sapiens, UniProt P37023).
T9 construct: purchased Reaction Biology (HotSpot contract assay)
T9 sequence (P37023 22-503): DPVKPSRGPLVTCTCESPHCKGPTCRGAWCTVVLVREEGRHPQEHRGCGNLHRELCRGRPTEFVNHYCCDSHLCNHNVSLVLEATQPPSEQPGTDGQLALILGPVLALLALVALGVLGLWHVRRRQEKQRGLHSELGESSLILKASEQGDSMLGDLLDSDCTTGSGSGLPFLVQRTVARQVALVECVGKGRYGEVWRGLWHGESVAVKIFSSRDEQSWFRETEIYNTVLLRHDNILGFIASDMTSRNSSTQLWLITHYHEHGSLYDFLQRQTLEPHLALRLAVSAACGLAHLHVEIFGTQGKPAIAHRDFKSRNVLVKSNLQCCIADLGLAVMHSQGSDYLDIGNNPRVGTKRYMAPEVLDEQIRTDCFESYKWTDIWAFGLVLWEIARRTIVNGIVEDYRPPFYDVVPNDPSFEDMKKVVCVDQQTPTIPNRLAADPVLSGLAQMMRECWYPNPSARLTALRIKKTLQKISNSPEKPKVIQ
The experiment can be described thus: biochemical. Format: biochemical. Particulars: ALK1/ACVRL1, 10 uM; for remaining activity at 10 µM: read-out: % Enzyme Activity (relative to DMSO controls).

In experiment [10] the target is T10, 382 unique human kinases (Homo sapiens, UniProt P17252).
T10 construct: purchased Reaction Biology (HotSpot contract assay)
The experiment is described as follows: biochemical. Format: biochemical. Particulars: PKCa, 10 uM; for remaining activity at 10 µM: read-out: % Enzyme Activity (relative to DMSO controls).

For experiment [11], the target named is T11, 382 unique human kinases (Homo sapiens, UniProt Q9Y572).
T11 construct: purchased Reaction Biology (HotSpot contract assay)
The experiment can be described thus: biochemical. Format: biochemical. Particulars: RIPK3, [ATP] 2.5 µM, compound 10 uM; for remaining activity at 10 µM: read-out: % Enzyme Activity (relative to DMSO controls).

In the next experiment the test system is HSP90AA1. Particulars: cited from earlier work; for pActivity, HSP90AA1: average of reported values, ref ChEMBL23 (accessed: 23/08/2018).
The target of another experiment is T12, TRKC (Homo sapiens, UniProt Q16288).
T12 construct: purchased Reaction Biology (HotSpot contract assay)
T12 sequence (Q16288 32-839): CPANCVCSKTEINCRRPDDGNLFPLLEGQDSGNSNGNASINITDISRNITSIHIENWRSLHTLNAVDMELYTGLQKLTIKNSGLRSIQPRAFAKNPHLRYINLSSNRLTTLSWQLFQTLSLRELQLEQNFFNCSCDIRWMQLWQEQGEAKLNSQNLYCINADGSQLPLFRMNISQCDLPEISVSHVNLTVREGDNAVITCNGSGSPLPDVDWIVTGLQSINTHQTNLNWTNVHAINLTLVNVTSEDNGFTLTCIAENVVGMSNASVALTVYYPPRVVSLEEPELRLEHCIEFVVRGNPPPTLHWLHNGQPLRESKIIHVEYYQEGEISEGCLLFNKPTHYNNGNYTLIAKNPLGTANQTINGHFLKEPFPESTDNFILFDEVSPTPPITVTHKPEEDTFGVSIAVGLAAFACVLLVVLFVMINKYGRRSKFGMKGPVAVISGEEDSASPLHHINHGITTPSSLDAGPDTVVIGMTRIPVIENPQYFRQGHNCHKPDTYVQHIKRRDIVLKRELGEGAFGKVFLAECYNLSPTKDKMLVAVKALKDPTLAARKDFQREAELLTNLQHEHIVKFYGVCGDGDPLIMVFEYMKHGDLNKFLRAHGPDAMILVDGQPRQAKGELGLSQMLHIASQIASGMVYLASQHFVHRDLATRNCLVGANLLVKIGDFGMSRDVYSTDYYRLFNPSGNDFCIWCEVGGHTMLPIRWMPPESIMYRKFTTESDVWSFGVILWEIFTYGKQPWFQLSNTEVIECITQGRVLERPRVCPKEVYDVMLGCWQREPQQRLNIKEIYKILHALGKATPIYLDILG
The experiment can be described thus: HotSpot in vitro kinase radiometric assay. Particulars: for inhibition at 10 µM: read-out: % inhibition at 10 uM: TRKC, Fig 6C median ± standard deviation (n = 2). It is filed as biochemical.

The target in the next experiment is T13, LCK (Homo sapiens, UniProt P06239).
T13 construct: purchased Reaction Biology (HotSpot contract assay)
T13 sequence (P06239 whole entry): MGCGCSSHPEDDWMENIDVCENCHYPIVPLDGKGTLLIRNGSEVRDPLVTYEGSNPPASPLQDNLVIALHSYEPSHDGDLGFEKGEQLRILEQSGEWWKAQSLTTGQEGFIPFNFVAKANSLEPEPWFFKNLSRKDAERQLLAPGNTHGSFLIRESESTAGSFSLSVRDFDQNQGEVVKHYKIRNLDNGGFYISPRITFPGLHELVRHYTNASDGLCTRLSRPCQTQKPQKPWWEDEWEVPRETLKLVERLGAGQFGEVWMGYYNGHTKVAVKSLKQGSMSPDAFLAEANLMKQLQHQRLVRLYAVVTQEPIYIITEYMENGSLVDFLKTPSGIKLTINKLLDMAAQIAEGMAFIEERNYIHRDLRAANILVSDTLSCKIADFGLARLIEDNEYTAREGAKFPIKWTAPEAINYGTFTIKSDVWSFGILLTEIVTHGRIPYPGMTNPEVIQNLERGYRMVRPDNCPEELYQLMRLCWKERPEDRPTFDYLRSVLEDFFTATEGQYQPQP
The experiment is described as follows: HotSpot in vitro kinase radiometric assay. Particulars: for inhibition at 10 µM: read-out: % inhibition at 10 uM: LCK, Fig 6C median ± standard deviation (n = 2). It is filed as biochemical.

As for `CC(C)c1cc(-c2n[nH]c(=O)n2-c2ccc3c(ccn3C)c2)c(O)cc1O` [Ganetespib (STA9090)], the remaining activity at 10 µM at 382 unique human kinases [1] stood at 77.7%; on 382 unique human kinases [2] it was 109%; on 382 unique human kinases [3], 84%; at 382 unique human kinases [4], 75.7%; on 382 unique human kinases [5] it was 73.6%; on 382 unique human kinases [6], 104%. Moreover, the remaining activity at 10 µM at 382 unique human kinases [7] came out at 118%.

For `CC(C)c1cc(-c2n[nH]c(=O)n2-c2ccc3c(ccn3C)c2)c(O)cc1O` [Ganetespib], the “pActivity, TRAP1” value in the experiment on TRAP1 was 7.29. The remaining activity at 10 µM on 382 unique human kinases [8] was 91%; on 382 unique human kinases [9] it was 95.6%; at 382 unique human kinases [10] it was 94.5%; on 382 unique human kinases [11], 59.1%.

Consider `CCNC(=O)c1noc(-c2cc(C(C)C)c(O)cc2O)c1-c1ccc(CN2CCOCC2)cc1` [Luminespib (AUY-922)], for which the “% Enzyme Activity (relative to DMSO controls)” value on 382 unique human kinases [1] came out at 79.36%; on 382 unique human kinases [2] it was 109.18%; on 382 unique human kinases [3], 86.44%; at 382 unique human kinases [4] it was 102.26%; at 382 unique human kinases [5] it was 85.21%; on 382 unique human kinases [6] it was 104.97%. At 382 unique human kinases [7], the “% Enzyme Activity (relative to DMSO controls)” value is 106.79%. For the same molecule, the remaining activity at 10 µM at 382 unique human kinases [1] amounted to 84.2%; at 382 unique human kinases [2], 110%; on 382 unique human kinases [3] it was 86.5%; on 382 unique human kinases [4], 104%; at 382 unique human kinases [5] it was 86.4%; at 382 unique human kinases [6] it was 106%. Besides, at 382 unique human kinases [7], the remaining activity at 10 µM came to 107%.

For the molecule `CCNC(=O)c1noc(-c2cc(C(C)C)c(O)cc2O)c1-c1ccc(CN2CCOCC2)cc1` [Luminespib], in the experiment on HSP90AA1, the “pActivity, HSP90AA1” value is 8.01. For the same molecule, the results for the inhibition at 10 µM on TRKC and at LCK were 4 ± 2% and 40 ± 2%, respectively. The “pActivity, TRAP1” value in the experiment on TRAP1 is 7.67. The “% Enzyme Activity (relative to DMSO controls)” value is reported as 103.89% at 382 unique human kinases [8], 102.87% on 382 unique human kinases [9], 92.02% at 382 unique human kinases [10] and 115.01% on 382 unique human kinases [11]. Also, the remaining activity at 10 µM on 382 unique human kinases [8] turned out to be 104%; at 382 unique human kinases [9], 105%; at 382 unique human kinases [10] it was 94%; at 382 unique human kinases [11], 124%.

As to `CCNC(=O)c1noc(-c2cc(Cl)c(O)cc2O)c1-c1ccc(OC)cc1` [VER-50589], the IC50 with HSP90AA1 (Fig 6C, IC50 against HSP90 shown for comparison, source not given) was 0.021 µM. Moreover, the “pActivity, HSP90AA1” value with HSP90AA1 is listed as 7.55. The “% Enzyme Activity (relative to DMSO controls)” value at TRKC (TRKC, 10uM, ATP 100 uM, Data 1, Data 2) stood at 86.46%; on LCK (LCK, 10uM, ATP 15 uM, Data 1, Data 2), 102.22%. The remaining activity at 10 µM on TRKC (TRKC, 10uM, ATP 100 uM, Data 1, Data 2, read-out: % Enzyme Activity (relative to DMSO controls)) was found to be 94.2%; at LCK (LCK, 10uM, ATP 15 uM, Data 1, Data 2, read-out: % Enzyme Activity (relative to DMSO controls)), 111%. In addition, the inhibition at 10 µM on TRKC is 10 ± 5%; on LCK, -6 ± 6%.

Usually inhibition stands for the drop in the measured response relative to a control, in per cent. For orientation: IC50 means the point on the concentration scale where inhibition reaches its midpoint.
